Active and inactive are the calls of the source. The calls are words filed in the database; no cut-off is given here.
How the values were obtained:
[1] = target: T1, Dual specificity protein kinase CLK2 (Homo sapiens, UniProt P49760); test: Inhibition of human CLK2 measured by DSF assay
Target sequence in this assay (P49760 whole entry, looked up): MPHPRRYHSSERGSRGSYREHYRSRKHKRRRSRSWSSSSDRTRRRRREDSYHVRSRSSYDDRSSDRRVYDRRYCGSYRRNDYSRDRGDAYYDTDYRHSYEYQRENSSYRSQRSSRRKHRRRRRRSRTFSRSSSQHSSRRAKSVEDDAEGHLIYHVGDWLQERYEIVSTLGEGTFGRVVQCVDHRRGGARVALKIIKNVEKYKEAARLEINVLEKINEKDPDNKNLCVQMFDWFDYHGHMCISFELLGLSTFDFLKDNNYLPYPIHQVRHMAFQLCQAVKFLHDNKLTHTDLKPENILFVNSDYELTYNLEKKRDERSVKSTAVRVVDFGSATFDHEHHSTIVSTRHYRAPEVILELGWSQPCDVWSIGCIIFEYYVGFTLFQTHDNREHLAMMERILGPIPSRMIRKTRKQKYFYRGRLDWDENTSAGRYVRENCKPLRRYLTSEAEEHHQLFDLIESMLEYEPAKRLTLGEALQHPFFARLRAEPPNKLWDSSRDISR

[2] = target: T2, Dual specificity protein kinase CLK4 (Homo sapiens, UniProt Q9HAZ1)
[3] = target: T3, Dual specificity protein kinase CLK3 (Homo sapiens, UniProt P49761)
Target sequence in this assay (P49761 whole entry): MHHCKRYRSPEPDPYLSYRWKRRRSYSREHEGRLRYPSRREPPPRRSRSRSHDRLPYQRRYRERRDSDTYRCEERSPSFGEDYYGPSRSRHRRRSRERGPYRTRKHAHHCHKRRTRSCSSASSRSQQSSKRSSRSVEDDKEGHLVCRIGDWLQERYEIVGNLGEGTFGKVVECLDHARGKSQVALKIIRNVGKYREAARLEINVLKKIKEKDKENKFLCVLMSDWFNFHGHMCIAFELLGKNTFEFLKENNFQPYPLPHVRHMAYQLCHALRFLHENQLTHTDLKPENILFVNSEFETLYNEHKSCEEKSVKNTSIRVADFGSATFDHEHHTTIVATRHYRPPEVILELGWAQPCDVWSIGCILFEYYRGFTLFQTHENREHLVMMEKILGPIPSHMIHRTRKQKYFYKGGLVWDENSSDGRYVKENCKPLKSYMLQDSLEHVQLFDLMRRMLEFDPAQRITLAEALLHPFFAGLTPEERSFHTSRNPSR

[4] = target: T4, Dual specificity protein kinase CLK1 (Homo sapiens, UniProt P49759)
[5] = target: T1, Dual specificity protein kinase CLK2
Target sequence in this assay (P49760 whole entry): as the sequence (P49760 whole entry, looked up) above

[6] = target: T1, Dual specificity protein kinase CLK2; test: Inhibition of CLK2 (unknown origin)
Target sequence in this assay (P49760 whole entry): as the sequence (P49760 whole entry, looked up) above

[7] = target: T4, Dual specificity protein kinase CLK1; test: Inhibition of CLK1 (unknown origin)
Mus musculus = species: Mus musculus; test: Induction of autophagy in APAP induced liver injury mouse model; format: functional, organism-based
[8] = Antifibrotic activity in TGF-beta1 induced primary human lung fibroblast; format: functional, cell-based
[9] = target: T3, Dual specificity protein kinase CLK3; test: Inhibition of human CLK3 assessed as residual activity at 3 uM
Target sequence in this assay (P49761 whole entry, looked up): as the sequence (P49761 whole entry) above

[10] = tested on: Triple-negative breast cancer cell; test: Antitumour activity expressed in triple negative breast cells (unknown origin) with dysfunctional G1-S checkpoint; format: functional, cell-based; details: Homo sapiens
Lung cancer cell line = test: Cytotoxicity against lung cancer cells (unknown origin); format: functional, cell-based; details: Homo sapiens
Homo sapiens [11] = species: Homo sapiens; test: Inhibition of DYRK kinase (unknown origin) at 100 uM
MCF7 = test: Cytotoxicity against human MCF7 cells; format: functional, cell-based
PC-3 = test: Cytotoxicity against human PC-3 cells; format: functional, cell-based
[12] = target: T1, Dual specificity protein kinase CLK2; test: Inhibition of human CLK2 at 1 uM
Target sequence in this assay (P49760 whole entry, looked up): as the sequence (P49760 whole entry, looked up) above

Homo sapiens [13] = species: Homo sapiens; test: Selectivity ratio of IC50 for inhibition of human CLK3 to IC50 for inhibition of human CLK2 by biochemical caliper assay
[14] = target: SRSF protein kinase 1 (Homo sapiens) (UniProt Q96SB4); test: Inhibition of SRSF phosphorylation in human HeLa cells; format: cell-based
Cancer cell lines = test: Antiproliferative activity against cancer cells (unknown origin); format: functional, cell-based; details: Homo sapiens
MDA-MB-231 = test: Cytotoxicity against MDA-MB-231 cells (unknown origin) assessed as supressed cell growth; format: functional, cell-based; details: Homo sapiens
T-24 = test: Cytotoxicity against T24 cells (unknown origin) assessed as supressed cell growth; format: functional, cell-based; details: Homo sapiens
[15] = target: T1, Dual specificity protein kinase CLK2; test: Inhibition of human CLK2 administered orally
Target sequence in this assay (P49760 whole entry): as the sequence (P49760 whole entry, looked up) above

[16] = target: T4, Dual specificity protein kinase CLK1; test: Inhibition of human CLK1 administered orally
[17] = target: T3, Dual specificity protein kinase CLK3; test: Inhibition of human CLK3 administered orally
Target sequence in this assay (P49761 whole entry): as the sequence (P49761 whole entry) above

[18] = target: T2, Dual specificity protein kinase CLK4; test: Inhibition of human CLK4 administered orally

T2 sequence (Q9HAZ1 whole entry): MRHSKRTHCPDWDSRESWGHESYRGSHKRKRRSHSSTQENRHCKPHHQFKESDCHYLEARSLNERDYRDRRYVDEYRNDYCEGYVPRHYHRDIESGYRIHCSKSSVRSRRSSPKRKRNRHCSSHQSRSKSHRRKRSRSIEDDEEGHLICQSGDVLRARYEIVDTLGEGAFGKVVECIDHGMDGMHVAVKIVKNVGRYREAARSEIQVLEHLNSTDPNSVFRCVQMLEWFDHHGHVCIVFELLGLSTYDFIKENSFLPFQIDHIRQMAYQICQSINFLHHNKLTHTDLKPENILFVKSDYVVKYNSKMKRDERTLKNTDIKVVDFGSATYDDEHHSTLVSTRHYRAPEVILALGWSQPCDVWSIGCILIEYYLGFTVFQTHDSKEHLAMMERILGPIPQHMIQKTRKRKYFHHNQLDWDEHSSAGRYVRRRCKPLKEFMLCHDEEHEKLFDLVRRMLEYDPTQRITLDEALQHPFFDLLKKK
T4 sequence (P49759 whole entry): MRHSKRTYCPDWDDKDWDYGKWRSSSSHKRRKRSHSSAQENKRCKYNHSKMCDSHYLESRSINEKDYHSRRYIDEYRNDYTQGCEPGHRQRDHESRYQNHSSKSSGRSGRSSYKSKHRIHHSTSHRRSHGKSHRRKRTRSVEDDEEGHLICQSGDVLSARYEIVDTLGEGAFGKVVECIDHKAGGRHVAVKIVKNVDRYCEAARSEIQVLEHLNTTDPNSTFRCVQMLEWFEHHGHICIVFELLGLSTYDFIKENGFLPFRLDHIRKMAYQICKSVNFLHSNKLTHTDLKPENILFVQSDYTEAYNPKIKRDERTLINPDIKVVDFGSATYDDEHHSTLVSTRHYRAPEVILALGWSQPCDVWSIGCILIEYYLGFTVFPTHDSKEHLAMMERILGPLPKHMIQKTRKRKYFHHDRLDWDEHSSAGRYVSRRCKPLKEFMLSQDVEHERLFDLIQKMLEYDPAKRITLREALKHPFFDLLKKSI
Chain of SRSF protein kinase 1 (Homo sapiens) (Q96SB4 whole entry): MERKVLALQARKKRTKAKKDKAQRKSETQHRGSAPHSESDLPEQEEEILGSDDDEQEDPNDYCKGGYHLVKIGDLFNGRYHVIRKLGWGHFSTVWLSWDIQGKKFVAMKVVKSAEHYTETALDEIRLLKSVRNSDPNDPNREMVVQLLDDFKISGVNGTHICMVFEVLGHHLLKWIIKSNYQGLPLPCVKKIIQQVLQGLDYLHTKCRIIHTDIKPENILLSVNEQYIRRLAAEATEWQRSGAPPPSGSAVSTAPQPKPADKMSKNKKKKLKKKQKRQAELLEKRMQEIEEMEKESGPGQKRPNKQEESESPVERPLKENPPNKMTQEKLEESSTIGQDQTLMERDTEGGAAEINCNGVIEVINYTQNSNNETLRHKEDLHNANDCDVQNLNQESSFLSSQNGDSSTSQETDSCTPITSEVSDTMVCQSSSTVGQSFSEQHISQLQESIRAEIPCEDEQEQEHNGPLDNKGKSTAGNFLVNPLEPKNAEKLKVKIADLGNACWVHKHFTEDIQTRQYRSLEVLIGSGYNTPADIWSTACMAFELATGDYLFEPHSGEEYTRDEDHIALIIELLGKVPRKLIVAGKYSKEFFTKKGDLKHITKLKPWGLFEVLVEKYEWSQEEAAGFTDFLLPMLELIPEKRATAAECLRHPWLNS

SMILES: CCOC(=O)c1c(/C(C#N)=C\N)c2ccc(Cl)c(Cl)c2n1C
- inhibition [1]: Active

SMILES: O=C1NC(Nc2ccccc2)=N/C1=C\c1ccc2c(c1)OCO2
- IC50 [2]: 64 nM
- IC50 [3]: > 10000 nM

SMILES: CC(C)(C)c1ccc(C(=O)Nc2cn3cc(-c4ccncc4)ccc3n2)cn1
- IC50 [4]: 1.1 nM
- IC50 [5]: 2.4 nM

SMILES: CC(C)c1cnn2c(NCc3ccc(-c4ccccn4)cc3)nc(N[C@H]3CC[C@H](N)CC3)nc12
- IC50 [2]: 89 nM
- IC50 [3]: 2.9 nM
- IC50 [4]: 100 nM
- IC50 [5]: 130 nM

SMILES: N=C1NC(=O)/C(=C/c2ccc3c(c2)CCO3)S1
- IC50 [5]: 6800 nM

SMILES: CN1C(=O)/C(=C/c2ccc3c(c2)OCO3)N=C1N [LEUCETTAMINE B]
- IC50 [5]: 720 nM

SMILES: COc1cccc2c1[nH]c1c3ccncc3cc(C#N)c21
- IC50 [6]: 41 nM
- IC50 [7]: 44 nM

SMILES: C[C@@H](c1ccc(F)cc1)n1nnc2cnc3ccc(-c4ccc5ocnc5c4)cc3c21
- Activity (Mus musculus): Active
- IC50 [3]: 8 nM

SMILES: CC(C)(CO)c1ccc(C(=O)Nc2cn3cc(-c4cn[nH]c4)ccc3n2)cn1
- IC50 [4]: 1.1 nM
- IC50 [5]: 2.1 nM

SMILES: O=C(Nc1cccnc1)c1c[nH]nc1-c1nc2c(-c3cccc(F)c3)cccc2[nH]1
- EC50 [8]: 18 nM
- IC50 [5]: 11 nM

SMILES: CC(C)n1cnc2c(Nc3cc(N)cc(Cl)c3)nc(NC3CCCCC3N)nc21 (stereo not drawn)
- IC50 [2]: 25 nM
- IC50 [3]: 1000 nM
- IC50 [4]: 17 nM
- IC50 [5]: 6 nM

SMILES: COc1cc(Nc2nccc(-c3cnn4nc(OC)ccc34)n2)cc(C(F)(F)F)c1
- IC50 [4]: 13 nM

SMILES: CNC(=O)c1ccc(Nc2nc(OC3CCCC3)c3c(-c4ccc5nc(C)oc5c4)c[nH]c3n2)c(OC)c1
- Activity [9]: 60%
- Activity [10]: Active
- Activity (Lung cancer cell line): Active

SMILES: c1csc(CNc2ncnc3ccc(-c4ccc5c(c4)OCO5)cc23)c1
- IC50 [2]: 50 nM
- IC50 [3]: 470 nM
- IC50 [4]: 37 nM
- IC50 [5]: 680 nM

SMILES: O=[N+]([O-])c1ccccc1-n1cc(COc2cccc3cnc(Nc4cccc(Cl)c4)nc23)nn1
- inhibition (Homo sapiens [11]): inactive
- IC50 [2]: 20 nM
- IC50 [3]: > 1000 nM
- IC50 [4]: 11 nM
- IC50 (MCF7): 4000 nM
- IC50 [5]: 27 nM
- IC50 (PC-3): 7000 nM

SMILES: Cc1nc2ccc3sc(NC(=O)c4ccc5scnc5c4)nc3c2s1
- IC50 [3]: 346 nM
- IC50 [4]: 51 nM
- IC50 [5]: 68 nM

SMILES: COc1ccc2sc(C(=O)N(C)OC)cc2c1
- inhibition [12]: 73%

SMILES: COc1cc(/C=C2\N=C(N)NC2=O)ccc1O [POLYANDROCARPAMINE A]
- IC50 [2]: 470 nM
- IC50 [3]: > 2000 nM
- IC50 [4]: 470 nM
- IC50 [5]: 640 nM

SMILES: Cc1[nH]nc2ccc(-c3cncc(OC[C@@H](N)CC(C)C)c3)cc12
- Ratio IC50 (Homo sapiens [13]): 225

SMILES: c1cc(-c2ccc3[nH]ncc3c2)ccn1
- inhibition [12]: 85%
- IC50 [4]: 113 nM

SMILES: O=C1NCc2c(Cl)cc3c(-c4ccccc4)c[nH]c3c21
- IC50 [3]: 300 nM
- IC50 [4]: 380 nM
- IC50 [5]: 33 nM

SMILES: COc1c(O)ccc2c(=O)c3c(O)cc4c(c3[nH]c12)C=CC(C)(C)O4
- IC50 [3]: > 2000 nM
- IC50 [4]: 210 nM

SMILES: CN1CCN(C(=O)C(C)(C)c2ccc(C(=O)Nc3cn4cc(-c5ccncc5)ccc4n3)cc2)CC1
- inhibition [14]: Dose-Dependent Effect

SMILES: O=C1NCc2ccc3c(-c4cccc(Cl)c4)c[nH]c3c21
- Activity (Cancer cell lines): Active
- IC50 [3]: 28 nM
- IC50 [4]: 88 nM
- IC50 [5]: 510 nM

SMILES: COc1ccc2sc(C(=O)N(C)Cc3cccc(F)c3)cc2c1
- Activity (MDA-MB-231): Active
- IC50 [2]: 2.3 nM
- Activity (T-24): Active
- IC50 [4]: 7 nM
- IC50 [5]: 19.1 nM

SMILES: COc1ccc(NC(=O)c2n[nH]c3ccc(-c4cncc(CN5CCCCC5)c4)cc23)cc1
- IC50 [5]: 0.822 nM

SMILES: O=C(O)c1nc2ccccc2c2[nH]c3c(Cl)cccc3c12
- IC50 [2]: 45 nM
- IC50 [3]: > 100 nM
- IC50 [4]: 130 nM

SMILES: Cc1ccc(CNc2ncnc3ccc(-c4ccc(CO)o4)cc23)o1
- IC50 [3]: > 10000 nM

SMILES: CNc1nc(NCc2ncccn2)c2c(-c3ccc4ncccc4c3)c[nH]c2n1
- IC50 [15]: 0.096 nM
- IC50 [16]: 4.8 nM
- IC50 [17]: 6.5 nM
- IC50 [18]: 0.61 nM
